{
  "source": "paper PMC6226472",
  "about": "“Cardol triene inhibits dengue infectivity by targeting kl loops and preventing envelope fusion” (Scientific Reports, 2018)",
  "key": {"DENV2 NGC": {"tested_on": "DENV2 NGC", "test": "Efficacy study (EC50) in DENV2 infected Vero cells, plaque titration", "format": "cell-based, Dengue virus", "procedure": "Next, we studied the efficacies (EC50) of the phenolic lipid homologues against DENV2 infectivity in Vero cells. Briefly, compounds at 10 different concentrations were added to DENV2-infected Vero cells (M.O.I. of 0.1) during and post infection and the viral inhibition was determined by plaque titration. […] Noted that anacardic acids were major components of CNSL extracts and all homologues were purified directly from CNSL itself.\nNext, each homologue was analyzed for effective concentration (EC50). Vero (5 × 10^4) cells were seeded, and infected with DENV2 (M.O.I. of 0.1) as previously described. Phenolic lipid mixtures and homologues were serially diluted in DMSO to the final concentrations as follows; 0, 0.5, 1, 1.5, 2, 2.5, 5, 7.5, 10, 25, and 50 µM. DMSO at the concentration of 1% was used as a mock treatment referring to 100% infection. Infected cells were treated with the designated compounds during and post infection. Supernatants were collected at 3 days after infection for analysis of virion production by plaque titration. Non-linear regression analysis was used to determine the effective concentrations. […] The therapeutic index (TI) was a ration of CC50/EC50 of the compound."}, "[1]": {"test": "Cytotoxic concentration (CC50)", "format": "cell-based", "details": "human", "procedure": "Next, the compound mixture were further purified and synthesized into saturated (C15:0), monoene (C15:1), diene (C15:2), and triene (C15:3) as described in materials and methods. Toxicities were analyzed and results were calculated to percent viability and CC50 were analyzed using non-linear regression curve (Table 1). […] Cardanol triene was insoluble in DMSO, therefore the compound was excluded from this study. It could be inferred that the polyunsaturated hydrocarbon may involve in stabilizing the cell membrane. […] Moreover, we further explored the CC50 of cardol triene in other cell lines to verify its protective effect. Three human-derived cell lines (THP-1, HEK-293, and HepG2) were used to co-incubate with cardol triene and cardol mixture (73% diene and 27% triene).\nCytotoxic concentrations (CC50) were also studied using Vero cells. Briefly, the 10^4 cells were seeded into each well of 96-well plates. After an overnight incubation, phenolic lipids were serially diluted in DMSO to the final concentrations as follows; 25, 50, 100, 200, 300, 400, and 500 µM. Each concentration was performed in quadruplicates. DMSO at 1% was used as a mock treatment referring to 100% cell viability. Cells were incubated for 48 h before cell viability was accessed using CellTiler 96® Aqueous One Solution Cell Proliferation Assay kit (Promega, Wisconsin, USA). Non-linear regression analysis was used to determine cytotoxic concentrations (CC50) of each experiment. Results were derived from three independent experiments and reported as means and standard error of the means (SEM)."}, "DENV1 (16007)": {"tested_on": "DENV1 (16007)", "test": "Efficacy (EC50) in infected Vero cells", "format": "cell-based", "details": "Dengue virus"}, "DENV3 (16562)": {"tested_on": "DENV3 (16562)", "test": "Efficacy (EC50) in infected Vero cells", "format": "cell-based", "details": "Dengue virus"}, "DENV4 (c0036)": {"tested_on": "DENV4 (c0036)", "test": "Efficacy (EC50) in infected Vero cells", "format": "cell-based", "details": "Dengue virus"}, "DENV2": {"tested_on": "DENV2", "test": "Attachment inhibition study", "format": "cell-based, Dengue virus", "procedure": "Since dengue envelope protein was the key factor to receptor-binding, endocytosis, and fusion, we asked the question whether the compound would mainly neutralize the virion, inhibit the receptor binding, or inhibit endosomal fusion. Cardol triene at 10 µM was then co-incubated with DENV2 before, during, and after infection to Vero cells (Fig. 6A). […] Therefore, the major target was most likely at a pH-dependent endosomal fusion. […] However, the major post-infection inhibition required further investigations.\nVero (5 × 10^4) cells were seeded into 24-well plates as previously described. DENV2 (M.O.I. of 1) was diluted in ice-cold MEM with 1% fetal bovine serum[42] and was allowed to adsorb on the cells for 1 h with continuous rocking. Cardol triene (10 µM) was prepared in DMSO and was mixed with DENV2 (M.O.I. of 1) before adsorption for 1 h (pre-attachment). Cardol triene (10 µM) was also mixed with DENV2 (M.O.I. of 1) and immediately applied to the cells (co-attachment). Last, cardol triene was added to the cells after 1 h DENV2 adsorption (post-attachment). The experiments were incubated for 2 days at 37 °C. Intracellular viral RNA was determined from cell lysate using RT-qPCR and infectious virion was determined using plaque titration of the supernatant. DMSO was added to the experiment as a no-inhibition control. Means and standard error of the means (SEM) of three independent experiments were noted."}},
  "data": [
    {"smiles": "C=CC/C=C/C/C=C/CCCCCCCc1cc(O)cc(O)c1", "note": "[Cardol triene, 5-[8(Z), 11(Z), 14-pentadecatrienyl]resorcinol]", "values": [
      {"measurement": "EC50", "setting": "DENV2 NGC; Dengue virus, 72 h, DENV2 NGC (M.O.I. of 0.1) infected Vero cells, plaque titration, 3 days, read-out: EC50", "result": "7.13 ± 0.72", "unit": "µM"},
      {"measurement": "TI (therapeutic index, CC50/EC50)", "setting": "DENV2 NGC; Vero CC50 / DENV2 EC50", "result": 29.07},
      {"measurement": "CC50", "setting": "[1]; THP-1 cells", "result": "148 ± 3.78", "unit": "µM"},
      {"measurement": "CC50", "setting": "[1]; HEK-293 cells", "result": "92.8 ± 3.93", "unit": "µM"},
      {"measurement": "CC50", "setting": "[1]; HepG2 cells", "result": "140 ± 8.44", "unit": "µM"},
      {"measurement": "EC50", "setting": "DENV1 (16007)", "result": "5.35 ± 1.16", "unit": "µM"},
      {"measurement": "EC50", "setting": "DENV3 (16562)", "result": "8.98 ± 1.77", "unit": "µM"},
      {"measurement": "EC50", "setting": "DENV4 (c0036)", "result": "8.21 ± 0.34", "unit": "µM"},
      {"measurement": "inhibition of intracellular RNA", "setting": "DENV2; 10 µM, post-infection, RT-qPCR", "result": "87.00 ± 6.43", "unit": "%"},
      {"measurement": "inhibition of infectious virions", "setting": "DENV2; 10 µM, pre-incubation and co-infection", "result": "moderate inhibition"},
      {"measurement": "inhibition at 10 µM", "setting": "DENV2; Dengue virus, DENV2, post-infection, plaque titration, read-out: inhibition of infectious virion", "result": "91.7 ± 4.53", "unit": "%"}
    ]}
  ]
}
